{"source": "paper PMC8429728", "about": "“TNK1 is a ubiquitin-binding and 14-3-3-regulated kinase that can be targeted to block tumor growth” (Nature Communications, 2021)", "experiment_in_all_cases": "biochemical", "parameters_in_all_cases": "Reaction Biology 371-kinase panel at Km ATP, per cent enzyme activity relative to DMSO, single dose in duplicate", "details_in_all_cases": "duplicate measurements, Km ATP", "key": {"[1]": {"target": "T1, CK1g2 (Homo sapiens, UniProt P78368)", "T1 construct": "gene CSNK1G2", "T1 sequence (P78368 whole entry)": "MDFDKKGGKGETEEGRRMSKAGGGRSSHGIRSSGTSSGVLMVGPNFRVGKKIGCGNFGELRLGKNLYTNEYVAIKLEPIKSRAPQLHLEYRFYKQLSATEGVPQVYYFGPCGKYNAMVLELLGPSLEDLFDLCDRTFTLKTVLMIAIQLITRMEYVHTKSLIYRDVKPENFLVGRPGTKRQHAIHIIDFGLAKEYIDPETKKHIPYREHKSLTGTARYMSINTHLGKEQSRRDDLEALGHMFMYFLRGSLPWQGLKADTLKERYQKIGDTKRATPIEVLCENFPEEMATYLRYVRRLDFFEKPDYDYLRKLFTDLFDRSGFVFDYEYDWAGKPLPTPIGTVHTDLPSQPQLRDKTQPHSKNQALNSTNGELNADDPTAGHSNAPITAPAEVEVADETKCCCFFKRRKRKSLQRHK", "method_in_brief": "(§1)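 First, kinases from a 371-member panel were exposed in vitro to 300 nM inhibitor. Next, % enzyme activity versus DMSO was computed. Finally, IC50s were derived by sigmoidal dose-response fitting with variable slope and a zero bottom constraint.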"}, "[2]": {"target": "ERBB4/HER4 (Homo sapiens, UniProt Q15303)", "method_in_brief": "as §1"}, "[3]": {"target": "LYN (Homo sapiens, UniProt P07948)", "method_in_brief": "as §1"}, "[4]": {"target": "T2, RSK1 (Homo sapiens, UniProt Q15418)", "T2 construct": "gene RPS6KA1", "T2 sequence (Q15418 whole entry)": "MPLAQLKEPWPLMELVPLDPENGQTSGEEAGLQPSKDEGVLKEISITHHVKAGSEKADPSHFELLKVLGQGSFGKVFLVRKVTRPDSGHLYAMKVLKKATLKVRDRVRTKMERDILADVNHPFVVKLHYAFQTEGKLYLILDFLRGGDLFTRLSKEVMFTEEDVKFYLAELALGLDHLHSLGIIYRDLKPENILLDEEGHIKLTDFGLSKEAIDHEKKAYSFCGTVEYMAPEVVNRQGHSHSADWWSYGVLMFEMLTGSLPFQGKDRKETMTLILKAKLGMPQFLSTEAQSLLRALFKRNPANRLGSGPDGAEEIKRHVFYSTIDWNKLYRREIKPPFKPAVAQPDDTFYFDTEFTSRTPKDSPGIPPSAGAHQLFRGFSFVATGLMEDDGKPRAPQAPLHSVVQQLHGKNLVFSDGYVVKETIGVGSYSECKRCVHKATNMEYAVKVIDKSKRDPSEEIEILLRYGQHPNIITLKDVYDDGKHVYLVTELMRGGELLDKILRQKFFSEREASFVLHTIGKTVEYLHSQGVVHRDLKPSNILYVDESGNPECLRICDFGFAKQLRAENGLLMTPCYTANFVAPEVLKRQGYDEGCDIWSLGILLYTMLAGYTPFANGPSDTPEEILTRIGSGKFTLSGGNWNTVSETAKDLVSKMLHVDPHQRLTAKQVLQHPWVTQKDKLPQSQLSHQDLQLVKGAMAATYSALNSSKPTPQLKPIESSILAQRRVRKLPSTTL", "method_in_brief": "as §1"}, "[5]": {"target": "MUSK (Homo sapiens, UniProt O15146)", "method_in_brief": "as §1"}, "[6]": {"target": "TLK2 (Homo sapiens, UniProt Q86UE8)", "method_in_brief": "as §1"}, "[7]": {"target": "EPHB1 (Homo sapiens, UniProt P54762)", "method_in_brief": "as §1"}, "[8]": {"target": "T3, IR (Homo sapiens, UniProt P06213)", "T3 construct": "gene INSR", "method_in_brief": "as §1"}, "[9]": {"target": "T4, LCK2/ICK (Homo sapiens, UniProt Q9UPZ9)", "T4 construct": "gene CILK1", "T4 sequence (Q9UPZ9 whole entry)": "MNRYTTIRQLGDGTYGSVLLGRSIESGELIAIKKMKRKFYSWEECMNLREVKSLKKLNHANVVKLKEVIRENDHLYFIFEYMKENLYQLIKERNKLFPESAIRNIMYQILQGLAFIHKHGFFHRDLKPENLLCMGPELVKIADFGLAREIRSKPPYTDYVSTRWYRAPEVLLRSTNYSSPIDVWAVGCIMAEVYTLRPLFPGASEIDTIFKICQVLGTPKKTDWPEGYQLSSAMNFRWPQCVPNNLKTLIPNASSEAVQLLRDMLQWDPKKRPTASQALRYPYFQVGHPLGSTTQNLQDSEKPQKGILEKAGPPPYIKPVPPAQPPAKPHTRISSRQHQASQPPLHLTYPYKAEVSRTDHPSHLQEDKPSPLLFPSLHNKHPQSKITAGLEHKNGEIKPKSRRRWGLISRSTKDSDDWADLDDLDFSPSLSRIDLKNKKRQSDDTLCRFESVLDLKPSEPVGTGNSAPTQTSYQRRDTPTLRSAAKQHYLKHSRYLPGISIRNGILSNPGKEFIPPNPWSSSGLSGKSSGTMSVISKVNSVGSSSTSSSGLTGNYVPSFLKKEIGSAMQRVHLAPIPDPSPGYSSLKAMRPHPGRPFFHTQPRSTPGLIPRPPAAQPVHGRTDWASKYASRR", "method_in_brief": "as §1"}, "[10]": {"target": "MRCKa/CDC42BPA (Homo sapiens, UniProt Q5VT25)", "method_in_brief": "as §1"}, "[11]": {"target": "RIPK2 (Homo sapiens, UniProt O43353)", "method_in_brief": "as §1"}, "[12]": {"target": "MAST3 (Homo sapiens, UniProt O60307)", "method_in_brief": "as §1"}, "[13]": {"target": "CDK1/cyclin E (Homo sapiens, UniProt P06493)", "sequence (P06493 whole entry)": "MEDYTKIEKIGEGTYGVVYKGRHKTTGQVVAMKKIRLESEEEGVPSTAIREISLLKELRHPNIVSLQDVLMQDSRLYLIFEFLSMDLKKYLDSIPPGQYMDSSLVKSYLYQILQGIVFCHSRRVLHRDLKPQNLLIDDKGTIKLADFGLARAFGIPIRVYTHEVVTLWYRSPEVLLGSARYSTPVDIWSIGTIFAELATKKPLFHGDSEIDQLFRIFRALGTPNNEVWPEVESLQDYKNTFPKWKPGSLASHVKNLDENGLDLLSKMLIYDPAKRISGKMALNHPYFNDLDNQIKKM", "sequence (P24864 whole entry partner)": "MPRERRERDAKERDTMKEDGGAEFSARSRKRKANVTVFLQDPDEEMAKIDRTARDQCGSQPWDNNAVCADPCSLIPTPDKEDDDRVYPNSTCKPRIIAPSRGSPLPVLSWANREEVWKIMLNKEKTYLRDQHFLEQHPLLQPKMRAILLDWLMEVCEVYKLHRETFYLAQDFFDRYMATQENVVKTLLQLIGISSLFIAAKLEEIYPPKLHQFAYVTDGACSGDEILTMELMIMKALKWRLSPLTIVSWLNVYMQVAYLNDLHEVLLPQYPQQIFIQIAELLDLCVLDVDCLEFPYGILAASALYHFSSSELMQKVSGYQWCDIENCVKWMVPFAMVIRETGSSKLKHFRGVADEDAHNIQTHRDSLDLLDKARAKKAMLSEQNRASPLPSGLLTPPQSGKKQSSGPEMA", "method_in_brief": "as §1"}, "[14]": {"target": "DYRK2 (Homo sapiens, UniProt Q92630)", "method_in_brief": "as §1"}, "[15]": {"target": "T5, LKB1 (Homo sapiens, UniProt Q15831)", "T5 construct": "gene STK11", "method_in_brief": "as §1"}, "[16]": {"target": "T6, CAMK1b (Homo sapiens, UniProt Q6P2M8)", "T6 construct": "gene PNCK", "T6 sequence (Q6P2M8 whole entry)": "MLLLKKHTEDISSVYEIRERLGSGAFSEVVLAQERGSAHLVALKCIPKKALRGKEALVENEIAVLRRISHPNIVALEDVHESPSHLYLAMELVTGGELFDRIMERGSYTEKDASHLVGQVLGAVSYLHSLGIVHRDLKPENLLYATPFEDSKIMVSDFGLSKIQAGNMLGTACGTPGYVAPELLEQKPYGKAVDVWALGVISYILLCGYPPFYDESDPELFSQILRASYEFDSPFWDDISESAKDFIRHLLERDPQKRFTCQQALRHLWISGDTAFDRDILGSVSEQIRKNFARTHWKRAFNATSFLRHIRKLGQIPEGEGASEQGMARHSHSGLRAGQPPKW", "method_in_brief": "as §1"}, "[17]": {"target": "ERN1/IRE1 (Homo sapiens, UniProt O75460)", "method_in_brief": "as §1"}, "[18]": {"target": "ULK2 (Homo sapiens, UniProt Q8IYT8)", "method_in_brief": "as §1"}, "[19]": {"target": "EGFR (Homo sapiens, UniProt P00533)", "sequence (P00533 whole entry)": "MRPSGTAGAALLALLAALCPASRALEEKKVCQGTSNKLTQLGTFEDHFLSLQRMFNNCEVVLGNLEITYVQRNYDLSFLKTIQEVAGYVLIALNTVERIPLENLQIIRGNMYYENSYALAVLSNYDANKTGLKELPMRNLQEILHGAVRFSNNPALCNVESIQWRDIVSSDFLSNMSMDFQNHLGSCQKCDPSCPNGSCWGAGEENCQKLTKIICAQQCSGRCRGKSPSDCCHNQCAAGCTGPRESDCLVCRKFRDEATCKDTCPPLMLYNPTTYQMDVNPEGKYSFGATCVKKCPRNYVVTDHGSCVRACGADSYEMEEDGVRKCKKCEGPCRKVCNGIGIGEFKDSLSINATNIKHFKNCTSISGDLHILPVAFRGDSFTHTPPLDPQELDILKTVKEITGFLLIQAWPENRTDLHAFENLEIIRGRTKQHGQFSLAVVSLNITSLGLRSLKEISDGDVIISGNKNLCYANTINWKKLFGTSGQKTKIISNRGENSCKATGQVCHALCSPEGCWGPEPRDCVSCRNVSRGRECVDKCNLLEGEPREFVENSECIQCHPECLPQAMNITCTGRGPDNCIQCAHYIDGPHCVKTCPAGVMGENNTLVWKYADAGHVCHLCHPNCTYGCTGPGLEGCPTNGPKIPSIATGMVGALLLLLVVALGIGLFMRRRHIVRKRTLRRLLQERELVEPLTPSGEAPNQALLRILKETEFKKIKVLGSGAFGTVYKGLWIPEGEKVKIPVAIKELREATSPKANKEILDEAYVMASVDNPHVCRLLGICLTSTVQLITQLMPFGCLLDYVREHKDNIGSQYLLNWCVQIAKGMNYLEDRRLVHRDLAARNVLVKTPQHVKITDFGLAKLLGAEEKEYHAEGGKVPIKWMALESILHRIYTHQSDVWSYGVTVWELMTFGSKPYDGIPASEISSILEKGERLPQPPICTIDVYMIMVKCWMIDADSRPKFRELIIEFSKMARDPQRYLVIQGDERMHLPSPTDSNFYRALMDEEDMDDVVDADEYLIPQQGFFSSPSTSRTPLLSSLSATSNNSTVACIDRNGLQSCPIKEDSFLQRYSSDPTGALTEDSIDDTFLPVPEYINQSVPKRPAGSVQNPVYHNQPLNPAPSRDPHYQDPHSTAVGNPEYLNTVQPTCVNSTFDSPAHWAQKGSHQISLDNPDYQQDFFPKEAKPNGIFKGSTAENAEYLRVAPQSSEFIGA", "method_in_brief": "as §1"}, "[20]": {"target": "c-Kit (Homo sapiens, UniProt P10721)", "sequence (P10721 whole entry)": "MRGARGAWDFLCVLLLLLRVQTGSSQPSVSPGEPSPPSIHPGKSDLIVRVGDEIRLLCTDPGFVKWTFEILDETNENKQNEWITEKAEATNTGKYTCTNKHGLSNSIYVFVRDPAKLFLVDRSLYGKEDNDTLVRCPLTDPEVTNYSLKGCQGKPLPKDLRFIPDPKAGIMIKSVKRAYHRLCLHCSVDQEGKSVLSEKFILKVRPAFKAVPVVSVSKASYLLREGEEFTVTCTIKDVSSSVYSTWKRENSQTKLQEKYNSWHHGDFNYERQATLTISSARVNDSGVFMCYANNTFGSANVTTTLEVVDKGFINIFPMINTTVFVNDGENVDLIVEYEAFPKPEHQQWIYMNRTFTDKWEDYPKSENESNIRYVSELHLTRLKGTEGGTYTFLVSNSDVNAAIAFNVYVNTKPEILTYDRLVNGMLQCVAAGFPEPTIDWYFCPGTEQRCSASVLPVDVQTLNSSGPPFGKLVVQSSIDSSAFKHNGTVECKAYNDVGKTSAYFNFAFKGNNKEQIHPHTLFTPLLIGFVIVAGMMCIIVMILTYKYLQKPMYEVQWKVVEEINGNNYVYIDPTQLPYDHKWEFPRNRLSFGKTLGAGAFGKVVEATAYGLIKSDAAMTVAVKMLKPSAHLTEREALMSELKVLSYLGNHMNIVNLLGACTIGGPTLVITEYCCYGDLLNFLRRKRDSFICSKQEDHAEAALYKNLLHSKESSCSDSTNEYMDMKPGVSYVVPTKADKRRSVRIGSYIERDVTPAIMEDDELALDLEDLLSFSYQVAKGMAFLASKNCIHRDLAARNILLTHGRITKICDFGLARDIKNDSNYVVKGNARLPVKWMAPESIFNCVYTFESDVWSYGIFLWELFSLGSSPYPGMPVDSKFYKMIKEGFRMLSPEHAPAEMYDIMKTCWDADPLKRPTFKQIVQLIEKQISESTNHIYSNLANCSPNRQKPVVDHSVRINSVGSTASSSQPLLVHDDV", "method_in_brief": "as §1"}, "[21]": {"details": "read-out: % Enzyme Activity (relative to DMSO controls) / TP-0005801 (0.3µM) / Data 1"}, "[22]": {"details": "read-out: % Enzyme Activity (relative to DMSO controls) / TP-0005801 (0.3µM) / Data 2"}}, "note": "Where two headings read alike, the source gives them in different places.", "data": [{"smiles": "COc1cc(N2CCN(C)CC2)c(C)cc1Nc1ncc(Br)c(Nc2cccnc2N(C)C)n1", "note": "[TP-5801]", "values": [{"measurement": "remaining activity at 0.3 µM", "setting": "[1]; [21]", "result": 94.5, "unit": "%"}, {"measurement": "remaining activity at 0.3 µM", "setting": "[1]; [22]", "result": 92.9, "unit": "%"}, {"measurement": "remaining activity at 0.3 µM", "setting": "[2]; [21]", "result": 103, "unit": "%"}, {"measurement": "remaining activity at 0.3 µM", "setting": "[2]; [22]", "result": 102, "unit": "%"}, {"measurement": "remaining activity at 0.3 µM", "setting": "[3]; [21]", "result": 70.1, "unit": "%"}, {"measurement": "remaining activity at 0.3 µM", "setting": "[3]; [22]", "result": 69.8, "unit": "%"}, {"measurement": "remaining activity at 0.3 µM", "setting": "[4]; [21]", "result": 76.2, "unit": "%"}, {"measurement": "remaining activity at 0.3 µM", "setting": "[4]; [22]", "result": 74.2, "unit": "%"}, {"measurement": "remaining activity at 0.3 µM", "setting": "[5]; [21]", "result": 62, "unit": "%"}, {"measurement": "remaining activity at 0.3 µM", "setting": "[5]; [22]", "result": 57.2, "unit": "%"}, {"measurement": "remaining activity at 0.3 µM", "setting": "[6]; [21]", "result": 101, "unit": "%"}, {"measurement": "remaining activity at 0.3 µM", "setting": "[6]; [22]", "result": 100, "unit": "%"}, {"measurement": "remaining activity at 0.3 µM", "setting": "[7]; [21]", "result": 90.7, "unit": "%"}, {"measurement": "remaining activity at 0.3 µM", "setting": "[7]; [22]", "result": 89, "unit": "%"}, {"measurement": "remaining activity at 0.3 µM", "setting": "[8]; [21]", "result": 3, "unit": "%"}, {"measurement": "remaining activity at 0.3 µM", "setting": "[8]; [22]", "result": 2.81, "unit": "%"}, {"measurement": "remaining activity at 0.3 µM", "setting": "[9]; [21]", "result": 90.2, "unit": "%"}, {"measurement": "remaining activity at 0.3 µM", "setting": "[9]; [22]", "result": 87.9, "unit": "%"}, {"measurement": "remaining activity at 0.3 µM", "setting": "[10]; [21]", "result": 104, "unit": "%"}, {"measurement": "remaining activity at 0.3 µM", "setting": "[10]; [22]", "result": 100, "unit": "%"}, {"measurement": "remaining activity at 0.3 µM", "setting": "[11]; [21]", "result": 95.8, "unit": "%"}, {"measurement": "remaining activity at 0.3 µM", "setting": "[11]; [22]", "result": 93.9, "unit": "%"}, {"measurement": "remaining activity at 0.3 µM", "setting": "[12]; [21]", "result": 101, "unit": "%"}, {"measurement": "remaining activity at 0.3 µM", "setting": "[12]; [22]", "result": 100, "unit": "%"}, {"measurement": "remaining activity at 0.3 µM", "setting": "[13]; [21]", "result": 97.2, "unit": "%"}, {"measurement": "remaining activity at 0.3 µM", "setting": "[13]; [22]", "result": 94.9, "unit": "%"}, {"measurement": "remaining activity at 0.3 µM", "setting": "[14]; [21]", "result": 94.2, "unit": "%"}, {"measurement": "remaining activity at 0.3 µM", "setting": "[14]; [22]", "result": 90.5, "unit": "%"}, {"measurement": "remaining activity at 0.3 µM", "setting": "[15]; [21]", "result": 107, "unit": "%"}, {"measurement": "remaining activity at 0.3 µM", "setting": "[15]; [22]", "result": 105, "unit": "%"}, {"measurement": "remaining activity at 0.3 µM", "setting": "[16]; [21]", "result": 119, "unit": "%"}, {"measurement": "remaining activity at 0.3 µM", "setting": "[16]; [22]", "result": 114, "unit": "%"}, {"measurement": "remaining activity at 0.3 µM", "setting": "[17]; [21]", "result": 83, "unit": "%"}, {"measurement": "remaining activity at 0.3 µM", "setting": "[17]; [22]", "result": 82.7, "unit": "%"}, {"measurement": "remaining activity at 0.3 µM", "setting": "[18]; [21]", "result": 86.5, "unit": "%"}, {"measurement": "remaining activity at 0.3 µM", "setting": "[18]; [22]", "result": 82.4, "unit": "%"}, {"measurement": "remaining activity at 0.3 µM", "setting": "[19]; [21]", "result": 97.2, "unit": "%"}, {"measurement": "remaining activity at 0.3 µM", "setting": "[19]; [22]", "result": 96, "unit": "%"}, {"measurement": "remaining activity at 0.3 µM", "setting": "[20]; [21]", "result": 85.3, "unit": "%"}, {"measurement": "remaining activity at 0.3 µM", "setting": "[20]; [22]", "result": 85.1, "unit": "%"}]}]}
